Laboratory results published in ChEMBL document CHEMBL4507326, “Data for DCP probe TP-030-2” (2021).
Active and inactive are the calls of the source.

Experiments:
[1] = biological target: Casein kinase I isoform epsilon (Homo sapiens, UniProt P49674); assay: CK1epsilon(CS1ELGI5) Takeda global kinase panel
Ephrin type-A receptor 4 = Ephrin type-A receptor 4 (Homo sapiens, UniProt P54764); assay: EphA4(EPA4LGF1) Takeda global kinase panel
[2] = biological target: Adenosine receptor A3 (Homo sapiens) (UniProt P0DMS8); conditions: Compound concentration 10.0 uM
[3] = biological target: 5-hydroxytryptamine receptor 1A (Homo sapiens) (UniProt P08908); conditions: Compound concentration 10.0 uM
[4] = biological target: Phosphatidylinositol 4,5-bisphosphate 3-kinase catalytic subunit delta isoform (Homo sapiens, UniProt O00329); assay: PI3KCD(PI3DCGRK) Takeda global kinase panel
[5] = biological target: Acetylcholine receptor subunit alpha (Homo sapiens) (UniProt P02708); assay: Inhibition of Nicotinic Acetylcholine D1, Bungarotoxin at 10 µM in the Eurofins-Panlabs radioligand binding assay (Eurofins_assay_258700); conditions: Compound concentration 10.0 uM
[6] = biological target: 5-hydroxytryptamine receptor 1A (Homo sapiens) (UniProt P08908); conditions: Compound concentration 10.0 uM; remark: listed apart in the source
[7] = biological target: Death-associated protein kinase 3 (Homo sapiens, UniProt O43293); assay: DAPK3(DAP3LGP1) Takeda global kinase panel
[8] = biological target: Mitogen-activated protein kinase 3 (Homo sapiens, UniProt P27361); assay: ERK1(MAP3LGY1) Takeda global kinase panel
[9] = biological target: Muscarinic acetylcholine receptor M4 (Homo sapiens) (UniProt P08173); conditions: Compound concentration 10.0 uM
[10] = biological target: Vascular endothelial growth factor receptor 1 (Homo sapiens, UniProt P17948); assay: FLT1(FLT1LGC5) Takeda global kinase panel
[11] = biological target: Mu-type opioid receptor (Homo sapiens) (UniProt P35372); conditions: Compound concentration 10.0 uM
[12] = biological target: Casein kinase I isoform delta (Homo sapiens, UniProt P48730); assay: CK1delta(CS1DLGI1) Takeda global kinase panel
[13] = biological target: Serine/threonine-protein kinase 26 (Homo sapiens, UniProt Q9P289); assay: MST4(MST4LGC1) Takeda global kinase panel
[14] = biological target: Dual specificity tyrosine-phosphorylation-regulated kinase 1B (Homo sapiens, UniProt Q9Y463); assay: DYRK1B(DY1BLHY1) Takeda global kinase panel
[15] = biological target: Mitogen-activated protein kinase kinase kinase 14 (Homo sapiens, UniProt Q99558); assay: NIK(M314LGP1) Takeda global kinase panel
[16] = biological target: Receptor-interacting serine/threonine-protein kinase 1 (Homo sapiens, UniProt Q13546); assay: TR-FRET (human RIPK1)
Myosin-IIIb = Myosin-IIIb (Homo sapiens, UniProt Q8WXR4); assay: MYO3B(MY3BLGA1) Takeda global kinase panel
[17] = biological target: Alpha-2A adrenergic receptor (Homo sapiens, UniProt P08913); assay: GPCRScan assay: inhibition of Alpha2A; set-up: radioligand conc. used [nm] 1.0 – 3.0, parental cells stable MDCK
[18] = biological target: Glutamate NMDA receptor (Rattus norvegicus) (UniProt P35439+Q00959+Q00960+Q00961+Q62645+Q8VHN2+Q9R1M7); conditions: Compound concentration 10.0 uM
[19] = biological target: Mitogen-activated protein kinase kinase kinase kinase 4 (Homo sapiens, UniProt O95819); assay: HGK [ZC1(M4K4CGP1)] Takeda global kinase panel
[20] = biological target: Non-receptor tyrosine-protein kinase TNK1 (Homo sapiens, UniProt Q13470); assay: Tnk1(TNK1LGY1) Takeda global kinase panel
[21] = biological target: Cyclin-dependent kinase 9 (Homo sapiens, UniProt P50750); assay: CDK9(CDK9CGS1) Takeda global kinase panel
[22] = biological target: GABA-A receptor; anion channel (Rattus norvegicus) (UniProt O09028+P15431+P18506+P18508+P19969+P20236+P23574+P23576+P28471+P28473+P30191+P62813+P63079+P63138+Q91ZM7+Q9ES14); conditions: Compound concentration 10.0 uM
[23] = biological target: Serine/threonine-protein kinase D3 (Homo sapiens, UniProt O94806); assay: PKD3(PRD3LGG5) Takeda global kinase panel
[24] = biological target: Ribosomal protein S6 kinase alpha-4 (Homo sapiens, UniProt O75676); assay: MSK2(R6A4LGRJ) Takeda global kinase panel
[25] = biological target: Inhibitor of nuclear factor kappa-B kinase subunit epsilon (Homo sapiens, UniProt Q14164); assay: IKKepsilon(IKBELGY1) Takeda global kinase panel
[26] = biological target: Casein kinase I isoform gamma-2 (Homo sapiens, UniProt P78368); assay: CK1gamma2(C1G2LGI1) Takeda global kinase panel
[27] = biological target: Alpha-1B adrenergic receptor (Homo sapiens) (UniProt P35368); conditions: Compound concentration 10.0 uM
[28] = biological target: Cyclin-dependent kinase 14 (Homo sapiens, UniProt O94921); assay: PFTAIRE1(CD14CGS1) Takeda global kinase panel
[29] = biological target: Muscarinic acetylcholine receptor M5 (Homo sapiens) (UniProt P08912); conditions: Compound concentration 10.0 uM
Activin receptor type-2A = Activin receptor type-2A (Homo sapiens, UniProt P27037); assay: ACtR2(AC2ALGE1) Takeda global kinase panel
[30] = biological target: ALK tyrosine kinase receptor (Homo sapiens, UniProt Q9UM73); assay: ALK(ALK1LGY1) Takeda global kinase panel
[31] = biological target: L-type calcium channel, dihydropyridine site (Cav1.2 alpha-1C) (Homo sapiens, UniProt Q13936); assay: Inhibition of Calcium Channel L-Type, Dihydropyridine at 10 µM in the Eurofins-Panlabs radioligand binding assay (Eurofins_assay_214600); set-up: ligand concentration 0.1 nM, non-specific ligand with concentration 1 µM Nitrendipine, incubation time 90 min, incubation temperature 25 °C; conditions: Wistar, rat, rat cerebral cortex preparation, probe [3H] Nitrendipine; compound concentration 10 uM; target entry is the homologue from another species
[32] = biological target: Beta-3 adrenergic receptor (Homo sapiens) (UniProt P13945); conditions: Compound concentration 10.0 uM
[33] = biological target: Cyclin-dependent kinase 17 (Homo sapiens, UniProt Q00537); assay: PCTAIRE2(CD17SGS1) Takeda global kinase panel
[34] = biological target: Dual specificity protein kinase CLK1 (Homo sapiens, UniProt P49759); assay: CLK1(CLK1LGF1) Takeda global kinase panel
[35] = biological target: 5-hydroxytryptamine receptor 1B (Homo sapiens) (UniProt P28222); conditions: Compound concentration 10.0 uM
[36] = biological target: Platelet-derived growth factor receptor beta (Homo sapiens, UniProt P09619); assay: PDGFRbeta(PDGBIHC1) Takeda global kinase panel
[37] = biological target: Cell division cycle 7-related protein kinase (Homo sapiens, UniProt O00311); assay: CDC7(CDC7CGP1) Takeda global kinase panel
[38] = biological target: Serine/threonine-protein kinase pim-1 (Homo sapiens, UniProt P11309); assay: Pim1(PIM1LGP1) Takeda global kinase panel
[39] = biological target: Cyclin-dependent kinase 5 (Homo sapiens, UniProt Q00535); assay: CDK5(CDK5CGS1) Takeda global kinase panel
[40] = biological target: Homeodomain-interacting protein kinase 4 (Homo sapiens, UniProt Q8NE63); assay: HIPK4(HIP4LHY1) Takeda global kinase panel

Sequence of 5-hydroxytryptamine receptor 1A (Homo sapiens) (P08908 whole entry, canonical isoform): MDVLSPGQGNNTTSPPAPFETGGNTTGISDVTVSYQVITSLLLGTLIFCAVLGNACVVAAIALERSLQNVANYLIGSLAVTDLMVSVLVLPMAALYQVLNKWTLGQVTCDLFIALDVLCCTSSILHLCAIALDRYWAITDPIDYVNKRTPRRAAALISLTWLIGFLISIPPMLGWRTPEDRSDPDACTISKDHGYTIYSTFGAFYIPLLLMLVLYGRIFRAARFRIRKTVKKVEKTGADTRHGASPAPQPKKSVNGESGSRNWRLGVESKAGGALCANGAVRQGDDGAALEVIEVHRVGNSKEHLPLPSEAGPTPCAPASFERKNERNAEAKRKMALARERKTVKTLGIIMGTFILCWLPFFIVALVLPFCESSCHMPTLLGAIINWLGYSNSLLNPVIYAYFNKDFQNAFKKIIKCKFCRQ
Sequence of ALK tyrosine kinase receptor (Q9UM73 whole entry): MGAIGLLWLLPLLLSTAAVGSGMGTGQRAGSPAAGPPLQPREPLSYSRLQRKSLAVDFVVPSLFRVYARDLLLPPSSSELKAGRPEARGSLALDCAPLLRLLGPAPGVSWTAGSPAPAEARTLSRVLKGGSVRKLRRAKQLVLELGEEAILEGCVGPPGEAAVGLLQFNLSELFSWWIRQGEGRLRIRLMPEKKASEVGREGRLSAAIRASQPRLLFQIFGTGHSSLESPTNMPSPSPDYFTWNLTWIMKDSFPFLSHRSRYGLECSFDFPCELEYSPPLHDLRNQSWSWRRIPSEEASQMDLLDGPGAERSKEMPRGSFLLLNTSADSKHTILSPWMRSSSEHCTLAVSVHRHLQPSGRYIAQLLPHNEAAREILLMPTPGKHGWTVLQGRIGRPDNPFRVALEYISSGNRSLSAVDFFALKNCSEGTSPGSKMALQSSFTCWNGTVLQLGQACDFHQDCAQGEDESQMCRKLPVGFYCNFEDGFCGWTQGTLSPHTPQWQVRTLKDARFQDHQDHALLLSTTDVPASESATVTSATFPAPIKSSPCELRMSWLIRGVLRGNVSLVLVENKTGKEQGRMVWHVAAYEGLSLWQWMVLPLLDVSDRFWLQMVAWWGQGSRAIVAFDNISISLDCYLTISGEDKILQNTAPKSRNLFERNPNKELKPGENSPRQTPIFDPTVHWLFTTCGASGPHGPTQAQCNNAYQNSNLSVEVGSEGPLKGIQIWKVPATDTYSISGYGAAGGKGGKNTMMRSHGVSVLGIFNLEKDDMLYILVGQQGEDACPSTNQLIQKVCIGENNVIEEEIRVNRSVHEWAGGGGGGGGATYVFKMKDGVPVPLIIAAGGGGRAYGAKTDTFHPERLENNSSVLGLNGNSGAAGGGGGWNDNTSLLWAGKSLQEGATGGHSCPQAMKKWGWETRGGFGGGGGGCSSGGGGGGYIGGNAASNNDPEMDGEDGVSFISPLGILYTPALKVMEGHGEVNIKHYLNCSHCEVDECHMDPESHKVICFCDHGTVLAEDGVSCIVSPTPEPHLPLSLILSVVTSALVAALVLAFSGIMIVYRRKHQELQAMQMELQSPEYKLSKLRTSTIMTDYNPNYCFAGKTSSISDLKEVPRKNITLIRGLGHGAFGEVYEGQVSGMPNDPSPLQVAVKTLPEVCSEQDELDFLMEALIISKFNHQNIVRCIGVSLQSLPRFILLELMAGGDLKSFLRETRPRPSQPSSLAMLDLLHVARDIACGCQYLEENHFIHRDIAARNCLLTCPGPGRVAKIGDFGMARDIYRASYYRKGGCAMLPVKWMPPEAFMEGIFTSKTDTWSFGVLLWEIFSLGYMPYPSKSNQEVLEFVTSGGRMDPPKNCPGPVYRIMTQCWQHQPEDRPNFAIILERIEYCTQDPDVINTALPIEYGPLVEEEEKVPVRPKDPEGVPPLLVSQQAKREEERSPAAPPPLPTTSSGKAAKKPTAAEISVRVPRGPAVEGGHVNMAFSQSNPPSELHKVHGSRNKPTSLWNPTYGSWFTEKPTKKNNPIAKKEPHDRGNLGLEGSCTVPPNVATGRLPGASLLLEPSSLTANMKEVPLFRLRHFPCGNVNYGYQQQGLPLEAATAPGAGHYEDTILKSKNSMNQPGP
Sequence of Cyclin-dependent kinase 9 (P50750 whole entry): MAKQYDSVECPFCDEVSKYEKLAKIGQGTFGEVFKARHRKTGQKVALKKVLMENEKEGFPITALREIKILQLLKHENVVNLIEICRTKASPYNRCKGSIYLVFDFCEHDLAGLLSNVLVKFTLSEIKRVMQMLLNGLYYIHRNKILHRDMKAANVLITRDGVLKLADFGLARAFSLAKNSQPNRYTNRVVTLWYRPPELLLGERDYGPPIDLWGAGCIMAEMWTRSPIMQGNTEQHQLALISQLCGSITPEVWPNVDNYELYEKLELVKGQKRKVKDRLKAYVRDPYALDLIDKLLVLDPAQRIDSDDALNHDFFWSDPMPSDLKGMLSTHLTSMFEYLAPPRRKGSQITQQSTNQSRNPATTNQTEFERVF
Sequence of L-type calcium channel, dihydropyridine site (Cav1.2 alpha-1C) (Q13936 whole entry): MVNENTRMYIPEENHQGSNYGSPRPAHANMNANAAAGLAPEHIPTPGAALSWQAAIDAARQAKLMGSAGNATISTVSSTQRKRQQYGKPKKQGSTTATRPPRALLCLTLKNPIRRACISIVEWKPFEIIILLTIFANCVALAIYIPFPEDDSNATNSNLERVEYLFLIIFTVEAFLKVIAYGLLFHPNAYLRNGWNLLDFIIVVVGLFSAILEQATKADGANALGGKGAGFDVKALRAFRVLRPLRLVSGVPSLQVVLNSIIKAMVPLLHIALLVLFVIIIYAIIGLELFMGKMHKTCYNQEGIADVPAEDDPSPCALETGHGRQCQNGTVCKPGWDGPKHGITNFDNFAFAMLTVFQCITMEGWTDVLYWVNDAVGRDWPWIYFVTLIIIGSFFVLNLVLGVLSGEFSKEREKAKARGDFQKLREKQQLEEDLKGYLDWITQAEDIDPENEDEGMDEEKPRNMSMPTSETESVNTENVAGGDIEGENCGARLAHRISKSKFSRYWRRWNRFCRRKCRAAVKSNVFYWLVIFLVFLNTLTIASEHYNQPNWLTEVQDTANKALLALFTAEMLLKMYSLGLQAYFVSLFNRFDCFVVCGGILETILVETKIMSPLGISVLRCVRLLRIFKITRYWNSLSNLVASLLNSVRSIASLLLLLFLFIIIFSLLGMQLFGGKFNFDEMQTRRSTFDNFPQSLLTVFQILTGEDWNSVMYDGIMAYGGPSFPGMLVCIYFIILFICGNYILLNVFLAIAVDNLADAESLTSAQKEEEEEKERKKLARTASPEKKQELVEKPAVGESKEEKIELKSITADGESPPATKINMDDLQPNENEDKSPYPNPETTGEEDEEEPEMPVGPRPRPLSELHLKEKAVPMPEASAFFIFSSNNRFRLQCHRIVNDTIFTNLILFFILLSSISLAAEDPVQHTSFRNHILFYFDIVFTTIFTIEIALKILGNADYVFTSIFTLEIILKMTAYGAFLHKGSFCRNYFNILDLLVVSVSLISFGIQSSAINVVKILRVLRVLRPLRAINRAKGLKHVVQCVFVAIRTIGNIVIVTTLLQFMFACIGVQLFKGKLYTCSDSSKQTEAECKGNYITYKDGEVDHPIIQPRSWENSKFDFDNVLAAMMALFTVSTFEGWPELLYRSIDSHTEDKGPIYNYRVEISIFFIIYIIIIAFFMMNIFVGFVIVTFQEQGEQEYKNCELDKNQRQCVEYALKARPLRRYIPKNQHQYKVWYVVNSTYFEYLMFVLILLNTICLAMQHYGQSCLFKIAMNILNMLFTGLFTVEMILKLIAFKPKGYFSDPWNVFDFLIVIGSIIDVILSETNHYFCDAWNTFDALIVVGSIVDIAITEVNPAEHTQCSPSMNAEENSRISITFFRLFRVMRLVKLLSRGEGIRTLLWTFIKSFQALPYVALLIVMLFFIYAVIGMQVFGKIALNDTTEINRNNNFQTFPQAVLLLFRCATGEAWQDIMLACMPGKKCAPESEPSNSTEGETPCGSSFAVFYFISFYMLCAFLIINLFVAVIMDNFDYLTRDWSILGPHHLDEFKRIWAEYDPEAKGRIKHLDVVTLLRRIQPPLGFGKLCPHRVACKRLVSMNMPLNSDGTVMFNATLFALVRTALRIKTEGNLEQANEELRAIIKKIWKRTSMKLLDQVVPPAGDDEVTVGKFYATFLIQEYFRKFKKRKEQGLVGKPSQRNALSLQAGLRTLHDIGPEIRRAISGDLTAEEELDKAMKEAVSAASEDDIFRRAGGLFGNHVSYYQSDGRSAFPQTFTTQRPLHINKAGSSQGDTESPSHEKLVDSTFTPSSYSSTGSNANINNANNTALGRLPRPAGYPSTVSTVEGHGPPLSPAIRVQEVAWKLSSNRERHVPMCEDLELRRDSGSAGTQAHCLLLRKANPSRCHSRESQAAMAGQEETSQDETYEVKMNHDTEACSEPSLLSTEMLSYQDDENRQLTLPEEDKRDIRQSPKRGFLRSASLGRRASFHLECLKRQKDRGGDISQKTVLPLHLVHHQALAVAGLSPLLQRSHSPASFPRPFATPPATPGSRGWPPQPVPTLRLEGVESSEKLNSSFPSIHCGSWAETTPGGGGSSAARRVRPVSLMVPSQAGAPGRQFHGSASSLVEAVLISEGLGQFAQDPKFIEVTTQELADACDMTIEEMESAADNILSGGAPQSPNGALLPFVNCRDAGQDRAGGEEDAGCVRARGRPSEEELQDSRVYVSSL
Sequence of Beta-3 adrenergic receptor (Homo sapiens) (P13945 whole entry, looked up): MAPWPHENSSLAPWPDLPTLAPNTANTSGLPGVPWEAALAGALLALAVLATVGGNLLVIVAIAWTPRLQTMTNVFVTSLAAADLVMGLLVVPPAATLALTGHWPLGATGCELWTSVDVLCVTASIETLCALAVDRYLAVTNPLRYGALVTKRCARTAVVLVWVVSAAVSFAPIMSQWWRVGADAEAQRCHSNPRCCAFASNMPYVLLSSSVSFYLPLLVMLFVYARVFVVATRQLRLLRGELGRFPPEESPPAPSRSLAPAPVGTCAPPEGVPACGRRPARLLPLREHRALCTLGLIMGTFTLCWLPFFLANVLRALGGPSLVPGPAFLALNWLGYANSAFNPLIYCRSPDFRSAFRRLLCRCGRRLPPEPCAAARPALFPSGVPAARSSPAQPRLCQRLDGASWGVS

CN1C(=O)[C@@H](N2CCc3c(nn(Cc4ccccc4)c3Br)C2=O)COc2ccccc21 [TP-030-2]
inactive: inhibition [2] 33% | inhibition [3] 18% | inhibition [5] -2% | inhibition [6] 16.9% | inhibition [9] 11.7% | inhibition [11] 14.6% | inhibition [18] 6% | inhibition [22] 33.9% | inhibition [27] -0.19% | inhibition [29] 9.18% | inhibition [32] 39.3% | inhibition [35] -3.35%
2360 nM: Ki [17]
29% (not active): inhibition at 90 min, 10 µM [31]
active: Ki [16] 0.43 nM
1000 nM: IC50 [1] | IC50 (Ephrin type-A receptor 4) | IC50 [4] | IC50 [7] | IC50 [8] | IC50 [10] | IC50 [12] | IC50 [13] | IC50 [14] | IC50 [15] | IC50 (Myosin-IIIb) | IC50 [19] | IC50 [20] | IC50 [21] | IC50 [23] | IC50 [24] | IC50 [25] | IC50 [26] | IC50 [28] | IC50 (Activin receptor type-2A) | IC50 [30] | IC50 [33] | IC50 [34] | IC50 [36] | IC50 [37] | IC50 [38] | IC50 [39] | IC50 [40]
